In brackets after ≈: the same amount, converted by molar mass.

Holding throughout (assay): MIC, standard broth micro-dilution assay
What all share (type): cell-based
For orientation: Broth dilution looks for growth in wells or tubes with falling amounts of substance.

Assay [1] relates to Entercoccus faecalis 2041. The procedure: (§1) The formula I compounds have in vitro and in vivo activity against Gram-positive pathogenic bacteria. The MIC's were determined using a standard broth micro-dilution assay.
In another assay the test system is Entercoccus faecalis 276. The procedure: as §1
Assay [2] has as its system Entercoccus gallinarum 245. As for the experimental part: as §1

With `CNC(CC(C)C)C(=O)NC1C(=O)NC(CC(N)=O)C(=O)NC2C(=O)NC3C(=O)NC(C(=O)NC(C(=O)O)c4cc(O)cc(O)c4-c4cc3ccc4O)C(OC3CC(C)(N)C(O)C(C)O3)c3ccc(c(Cl)c3)Oc3cc2cc(c3OC2OC(CO)C(O)C(O)C2OC2CC(C)(NCc3ccc4c(c3)CCO4)C(O)C(C)O2)Oc2ccc(cc2Cl)C1O` (stereo not drawn) [Compound 82, S-[2,3-dihydrobenzfuryl]methyl], the MIC in assay [1] was 0.5 µg/mL (≈ 0.29 µM); in the assay with Entercoccus faecalis 276, not above 0.06 µg/mL.
As for `CNC(CC(C)C)C(=O)NC1C(=O)NC(CC(N)=O)C(=O)NC2C(=O)NC3C(=O)NC(C(=O)NC(C(=O)O)c4cc(O)cc(O)c4-c4cc3ccc4O)C(OC3CC(C)(N)C(O)C(C)O3)c3ccc(c(Cl)c3)Oc3cc2cc(c3OC2OC(CO)C(O)C(O)C2OC2CC(C)(NCCCCCCCCc3ccccc3)C(O)C(C)O2)Oc2ccc(cc2Cl)C1O` (stereo not drawn) [Compound 176, 8-phenyloctyl], the MIC (in assay [2]; in the assay with Entercoccus faecalis 276) was 2 µg/mL (≈ 1.12 µM) throughout.
For `CNC(CC(C)C)C(=O)NC1C(=O)NC(CC(N)=O)C(=O)NC2C(=O)NC3C(=O)NC(C(=O)NC(C(=O)O)c4cc(O)cc(O)c4-c4cc3ccc4O)C(OC3CC(C)(N)C(O)C(C)O3)c3ccc(c(Cl)c3)Oc3cc2cc(c3OC2OC(CO)C(O)C(O)C2OC2CC(C)(NCCc3ccc(Oc4ccccc4)cc3)C(O)C(C)O2)Oc2ccc(cc2Cl)C1O` (stereo not drawn) [Compound 33, 4-phenoxyphenethyl], the MIC (in assay [1]; in the assay on Entercoccus faecalis 276) was not above 0.06 µg/mL throughout.
Regarding `CNC(CC(C)C)C(=O)NC1C(=O)NC(CC(N)=O)C(=O)NC2C(=O)NC3C(=O)NC(C(=O)NC(C(=O)O)c4cc(O)cc(O)c4-c4cc3ccc4O)C(OC3CC(C)(N)C(O)C(C)O3)c3ccc(c(Cl)c3)Oc3cc2cc(c3OC2OC(CO)C(O)C(O)C2OC2CC(C)(NCc3c4ccccc4cc4ccccc34)C(O)C(C)O2)Oc2ccc(cc2Cl)C1O` (stereo not drawn) [Compound 13, 9-anthranylmethyl], the MIC in assay [2] came out at 0.25 µg/mL (≈ 0.14 µM); against Entercoccus faecalis 276, 0.5 µg/mL (≈ 0.28 µM).
In the case of `C=CCCCCCCCCNC1(C)CC(OC2C(Oc3c4cc5cc3Oc3ccc(cc3Cl)C(OC3CC(C)(N)C(O)C(C)O3)C3NC(=O)C(NC(=O)C5NC(=O)C(CC(N)=O)NC(=O)C(NC(=O)C(CC(C)C)NC)C(O)c5ccc(c(Cl)c5)O4)c4ccc(O)c(c4)-c4c(O)cc(O)cc4C(C(=O)O)NC3=O)OC(CO)C(O)C2O)OC(C)C1O` (stereo not drawn) [Compound 214, 9-decenyl], the MIC in assay [2] was 2 µg/mL (≈ 1.16 µM); with Entercoccus faecalis 276, 0.25 µg/mL (≈ 0.144 µM).
For the compound `CNC(CC(C)C)C(=O)NC1C(=O)NC(CC(N)=O)C(=O)NC2C(=O)NC3C(=O)NC(C(=O)NC(C(=O)O)c4cc(O)cc(O)c4-c4cc3ccc4O)C(OC3CC(C)(N)C(O)C(C)O3)c3ccc(c(Cl)c3)Oc3cc2cc(c3OC2OC(CO)C(O)C(O)C2OC2CC(C)(NCc3ccc(OCCOC(C)(C)C)cc3)C(O)C(C)O2)Oc2ccc(cc2Cl)C1O` (stereo not drawn) [Compound 154, 4-[2-t-butoxyethoxy]benzyl], the values for the MIC (in assay [2]; against Entercoccus faecalis 276) were 4 µg/mL (≈ 2.22 µM) and 0.5 µg/mL (≈ 0.278 µM), respectively.
As for `CCCCCCCCC#CCCCCCCNC1(C)CC(OC2C(Oc3c4cc5cc3Oc3ccc(cc3Cl)C(OC3CC(C)(N)C(O)C(C)O3)C3NC(=O)C(NC(=O)C5NC(=O)C(CC(N)=O)NC(=O)C(NC(=O)C(CC(C)C)NC)C(O)c5ccc(c(Cl)c5)O4)c4ccc(O)c(c4)-c4c(O)cc(O)cc4C(C(=O)O)NC3=O)OC(CO)C(O)C2O)OC(C)C1O` (stereo not drawn) [Compound 207, 7-hexadecynyl], the MIC in assay [2] was 1 µg/mL (≈ 0.552 µM); against Entercoccus faecalis 276, 0.25 µg/mL (≈ 0.138 µM).
Consider `CNC(CC(C)C)C(=O)NC1C(=O)NC(CC(N)=O)C(=O)NC2C(=O)NC3C(=O)NC(C(=O)NC(C(=O)O)c4cc(O)cc(O)c4-c4cc3ccc4O)C(OC3CC(C)(N)C(O)C(C)O3)c3ccc(c(Cl)c3)Oc3cc2cc(c3OC2OC(CO)C(O)C(O)C2OC2CC(C)(NCc3ccc(-c4cccs4)cc3)C(O)C(C)O2)Oc2ccc(cc2Cl)C1O` (stereo not drawn) [Compound 218, 4-[2-thienyl]benzyl], for which the MIC (in assay [2]; against Entercoccus faecalis 276) was not above 0.06 µg/mL each time.
With `CNC(CC(C)C)C(=O)NC1C(=O)NC(CC(N)=O)C(=O)NC2C(=O)NC3C(=O)NC(C(=O)NC(C(=O)O)c4cc(O)cc(O)c4-c4cc3ccc4O)C(O)c3ccc(c(Cl)c3)Oc3cc2cc(c3OC2OC(CO)C(O)C(O)C2OC2CC(C)(NCc3ccc(-c4ccccc4)cc3)C(O)C(C)O2)Oc2ccc(cc2Cl)C1O` (stereo not drawn) [Compound 181, 4-phenylbenzyl], the figures for the MIC (in assay [2]; against Entercoccus faecalis 276) were not above 0.06 µg/mL and 2 µg/mL (≈ 1.24 µM), respectively.
For `CNC(CC(C)C)C(=O)NC1C(=O)NC(CC(N)=O)C(=O)NC2C(=O)NC3C(=O)NC(C(=O)NC(C(=O)O)c4cc(O)cc(O)c4-c4cc3ccc4O)C(OC3CC(C)(N)C(O)C(C)O3)c3ccc(c(Cl)c3)Oc3cc2cc(c3OC2OC(CO)C(O)C(O)C2OC2CC(C)(NCC=Cc3ccccc3)C(O)C(C)O2)Oc2ccc(cc2Cl)C1O` (stereo not drawn) [Compound 38, trans-cinnamyl], the MIC is not above 0.06 µg/mL in assay [1] and 0.5 µg/mL (≈ 0.293 µM) in the assay with Entercoccus faecalis 276.
As to `CNC(CC(C)C)C(=O)NC1C(=O)NC(CC(N)=O)C(=O)NC2C(=O)NC3C(=O)NC(C(=O)NC(C(=O)O)c4cc(O)cc(O)c4-c4cc3ccc4O)C(OC3CC(C)(N)C(O)C(C)O3)c3ccc(c(Cl)c3)Oc3cc2cc(c3OC2OC(CO)C(O)C(O)C2OC2CC(C)(NCc3ccc(OC(C)=O)cc3)C(O)C(C)O2)Oc2ccc(cc2Cl)C1O` (stereo not drawn) [Compound 138, 4-acetoxybenzyl], the MIC (in assay [1]; in the assay on Entercoccus faecalis 276) was not above 0.06 µg/mL each time.
`CNC(CC(C)C)C(=O)NC1C(=O)NC(CC(N)=O)C(=O)NC2C(=O)NC3C(=O)NC(C(=O)NC(C(=O)O)c4cc(O)cc(O)c4-c4cc3ccc4O)C(OC3CC(C)(N)C(O)C(C)O3)c3ccc(c(Cl)c3)Oc3cc2cc(c3OC2OC(CO)C(O)C(O)C2OC2CC(C)(NCc3ccc(N4CCCCC4C)cc3)C(O)C(C)O2)Oc2ccc(cc2Cl)C1O` (stereo not drawn) [Compound 135, 4-[2-methyl-1-piperidino]benzyl]: the minimum inhibitory concentration (MIC) was determined as 2 µg/mL (≈ 1.12 µM) in assay [2] and 0.5 µg/mL (≈ 0.281 µM) in the assay with Entercoccus faecalis 276.
For the compound `CNC(CC(C)C)C(=O)NC1C(=O)NC(CC(N)=O)C(=O)NC2C(=O)NC3C(=O)NC(C(=O)NC(C(=O)O)c4cc(O)cc(O)c4-c4cc3ccc4O)C(OC3CC(C)(N)C(O)C(C)O3)c3ccc(c(Cl)c3)Oc3cc2cc(c3OC2OC(CO)C(O)C(O)C2OC2CC(C)(NCc3ccc(-c4ccccc4C)c(C)c3)C(O)C(C)O2)Oc2ccc(cc2Cl)C1O` (stereo not drawn) [Compound 237, 4-[2-methylphenyl]-3-methylbenzyl], the MIC (in assay [2]; with Entercoccus faecalis 276) was 1 µg/mL (≈ 0.56 µM) in each case.
Take `CNC(CC(C)C)C(=O)NC1C(=O)NC(CC(N)=O)C(=O)NC2C(=O)NC3C(=O)NC(C(=O)NC(C(=O)O)c4cc(O)cc(O)c4-c4cc3ccc4O)C(OC3CC(C)(N)C(O)C(C)O3)c3ccc(c(Cl)c3)Oc3cc2cc(c3OC2OC(CO)C(O)C(O)C2OC2CC(C)(NCc3ccnc4ccccc34)C(O)C(C)O2)Oc2ccc(cc2Cl)C1O` (stereo not drawn) [Compound 27, 4-quinolylmethyl]: the MIC (in assay [2]; in the assay with Entercoccus faecalis 276) was 0.5 µg/mL (≈ 0.288 µM) throughout.
As for `CNC(CC(C)C)C(=O)NC1C(=O)NC(CC(N)=O)C(=O)NC2C(=O)NC3C(=O)NC(C(=O)NC(C(=O)O)c4cc(O)cc(O)c4-c4cc3ccc4O)C(OC3CC(C)(N)C(O)C(C)O3)c3ccc(c(Cl)c3)Oc3cc2cc(c3OC2OC(CO)C(O)C(O)C2OC2CC(C)(NCCc3ccc(Oc4ccccc4)cc3)C(O)C(C)O2)Oc2ccc(cc2Cl)C1O` (stereo not drawn) [Compound 63, 4-phenoxyphenethyl], the MIC in assay [2] amounted to 8 µg/mL (≈ 4.47 µM); in the assay on Entercoccus faecalis 276, 0.5 µg/mL (≈ 0.28 µM).
Regarding `CNC(CC(C)C)C(=O)NC1C(=O)NC(CC(N)=O)C(=O)NC2C(=O)NC3C(=O)NC(C(=O)NC(C(=O)O)c4cc(O)cc(O)c4-c4cc3ccc4O)C(OC3CC(C)(N)C(O)C(C)O3)c3ccc(c(Cl)c3)Oc3cc2cc(c3OC2OC(CO)C(O)C(O)C2OC2CC(C)(NCc3ccc(Cl)c(C(=O)c4ccccc4)c3Cl)C(O)C(C)O2)Oc2ccc(cc2Cl)C1O` (stereo not drawn) [Compound 133, 3-benzoyl-2,4-dichlorobenzyl], the MIC in assay [2] amounted to 2 µg/mL (≈ 1.08 µM); in the assay on Entercoccus faecalis 276, 1 µg/mL (≈ 0.539 µM).
For `CNC(CC(C)C)C(=O)NC1C(=O)NC(CC(N)=O)C(=O)NC2C(=O)NC3C(=O)NC(C(=O)NC(C(=O)O)c4cc(O)cc(O)c4-c4cc3ccc4O)C(OC3CC(C)(N)C(O)C(C)O3)c3ccc(c(Cl)c3)Oc3cc2cc(c3OC2OC(CO)C(O)C(O)C2OC2CC(C)(NCCc3cccc(OCc4ccccc4)c3)C(O)C(C)O2)Oc2ccc(cc2Cl)C1O` (stereo not drawn) [Compound 69, 3-benzyloxyphenethyl], the MIC in assay [2] amounted to 8 µg/mL (≈ 4.44 µM); in the assay with Entercoccus faecalis 276, 0.5 µg/mL (≈ 0.277 µM).
In the assay with Entercoccus faecalis 276, `CNC(CC(C)C)C(=O)NC1C(=O)NC(CC(N)=O)C(=O)NC2C(=O)NC3C(=O)NC(C(=O)NC(C(=O)O)c4cc(O)cc(O)c4-c4cc3ccc4O)C(OC3CC(C)(N)C(O)C(C)O3)c3ccc(c(Cl)c3)Oc3cc2cc(c3OC2OC(CO)C(O)C(O)C2OC2CC(C)(NCc3c(OC)ccc4ccccc34)C(O)C(C)O2)Oc2ccc(cc2Cl)C1O` (stereo not drawn) [Compound 9, 2-methoxy-1-naphthylmethyl] gave an MIC of 0.26 µg/mL (≈ 0.148 µM).
Consider `CCc1ccc(-c2ccc(CNC3(C)CC(OC4C(Oc5c6cc7cc5Oc5ccc(cc5Cl)C(OC5CC(C)(N)C(O)C(C)O5)C5NC(=O)C(NC(=O)C7NC(=O)C(CC(N)=O)NC(=O)C(NC(=O)C(CC(C)C)NC)C(O)c7ccc(c(Cl)c7)O6)c6ccc(O)c(c6)-c6c(O)cc(O)cc6C(C(=O)O)NC5=O)OC(CO)C(O)C4O)OC(C)C3O)cc2)cc1` (stereo not drawn) [Compound 90, 4-[4-ethylphenyl]benzyl], for which the MIC (in assay [2]; with Entercoccus faecalis 276) was 2 µg/mL (≈ 1.12 µM) in each case.
`CNC(CC(C)C)C(=O)NC1C(=O)NC(CC(N)=O)C(=O)NC2C(=O)NC3C(=O)NC(C(=O)NC(C(=O)O)c4cc(O)cc(O)c4-c4cc3ccc4O)C(OC3CC(C)(N)C(O)C(C)O3)c3ccc(c(Cl)c3)Oc3cc2cc(c3OC2OC(CO)C(O)C(O)C2OC2CC(C)(NCc3ccc(-c4ccc(OC)c(OC)c4)cc3)C(O)C(C)O2)Oc2ccc(cc2Cl)C1O` (stereo not drawn) [Compound 215, 4-[3,4-dimethoxyphenyl]benzyl] yielded a minimal inhibitory concentration (MIC) in the assay on Entercoccus faecalis 276 of 2 µg/mL (≈ 1.1 µM).
With `CNC(CC(C)C)C(=O)NC1C(=O)NC(CC(N)=O)C(=O)NC2C(=O)NC3C(=O)NC(C(=O)NC(C(=O)O)c4cc(O)cc(O)c4-c4cc3ccc4O)C(OC3CC(C)(N)C(O)C(C)O3)c3ccc(c(Cl)c3)Oc3cc2cc(c3OC2OC(CO)C(O)C(O)C2OC2CC(C)(NCc3ccc(-c4ccc(C(F)(F)F)cc4)cc3)C(O)C(C)O2)Oc2ccc(cc2Cl)C1O` (stereo not drawn) [Compound 216, 4-[4-trifluromethylphenyl]benzyl], the MIC against Entercoccus faecalis 276 amounted to 0.5 µg/mL (≈ 0.274 µM). This MIC is about 4-fold lower than that of the compound before.

As a reminder, the MIC is the lowest concentration found to suppress growth. Lower therefore signals inhibition by little substance.

Source of the values: patent publication US5843889A, “Glycopeptide antibiotic derivatives” (Eli Lilly and Company, priority 1997, dated 1998).
